Test results as given in patent publication US9901111B2, “Taste-improving peptide” (Takasago International Corporation, priority 2011, dated 2018).

Test: Sensory evaluation of sourness-masking effect in yoghurt drink by five special panelists
Conditions: for Evaluation Result (sourness-masking effect): score 0-3, stored at 10° C. for 10 days
Protocol: The peptide mixture obtained in the above procedure 1 was centrifuged (20,000 G) to obtain an aqueous layer. The aqueous layer was treated with UF membranes of 20 nm, 5 kDa and 1 kDa, respectively, and permeate solutions were collected. Each permeate solution obtained through the UF membranes or the peptide mixture before treatment were added to a commercially available yoghurt drink. After the yoghurt drink was stored at 10° C. for 10 days, five special panelists conducted sensory evaluation regarding a sourness-masking effect. Note that each sample was prepared such that the addition amount is 0.1% calculated in terms of the peptide mixture. A commercially available yoghurt drink without addition was used as control. Evaluation was performed by scoring from 0 to 3 shown in Table 1 at 0.5 point intervals.
(§1) In the same manner as in the above procedure 2, the obtained 13 fractions were added to a commercially available yoghurt drink, respectively. After the yoghurt drink was stored at 10° C. for 10 days, five special panelists conducted sensory evaluation regarding a sourness-masking effect. Each sample was prepared such that the addition amount is 0.1% calculated in terms of the peptide mixture. The evaluation method is the same as in the above procedure 2.
as §1, with “four” for “13”
The five kinds of peptide identified in Example 1 and phenylalanine were added to a commercially available yoghurt drink, respectively. After the yoghurt drink was stored at 10° C. for 10 days, five special panelists conducted sensory evaluation regarding a sourness-masking effect. The peptide mixture obtained in Example 1-1 was added in an amount of 0.1%, the peptides and phenylalanine obtained in Example 1-5 were added in an amount of 20 ppb and the mixture of VP+LLL was added in an amount of 10 ppb each. The evaluation method was the same as in Example 1-2.
VP and LLL were mixed in the mixture ratio within the range from 1:9 to 9:1 and each mixture was added to a commercially available yoghurt drink in an amount of 0.01 ppm. After the yoghurt drink was stored at 10° C. for 10 days, five special panelists conducted sensory evaluation regarding a sourness-masking effect. The evaluation method is the same as in the Example 1-2.
VP, LLL and the mixture of equal parts of VP and LLL were added to a commercially available yoghurt drink in an amount of 0.001 ppm, 0.01 ppm and 0.1 ppm, respectively. After the yoghurt drink was stored at 10° C. for 10 days, five special panelists conducted sensory evaluation regarding a sourness-masking effect. The evaluation method is the same as in the Example 1-2.

[1] = Example 4, addition concentration 0.001 ppm
[2] = Example 4, addition concentration 0.01 ppm
[3] = Example 4, addition concentration 0.1 ppm

N[C@@H](Cc1ccccc1)C(=O)O [F, phenylalanine, reference compound]
Evaluation Result (sourness-masking effect) (Example 2, added at 20 ppb): 0.1

Leu-Leu-Leu [LLL]
sourness-masking effect, in words (Example 2, added at 20 ppb): remarkable sourness-masking effect | Evaluation Result (sourness-masking effect) (Example 2, added at 20 ppb): 1.4 | Evaluation Result (sourness-masking effect) (Example 3, added at 0.01 ppm): 1.3 | Evaluation Result (sourness-masking effect) [1]: 0.3 | Evaluation Result (sourness-masking effect) [2]: 1.4 | Evaluation Result (sourness-masking effect) [3]: 1.5

Leu-Leu-Leu-Leu (LLLL; printed: Leu-Leu-Leu-Leu) [reference compound]
Evaluation Result (sourness-masking effect) (Example 2, added at 20 ppb): 0.3

Leu-Pro-Pro [LPP, reference compound]
Evaluation Result (sourness-masking effect) (Example 2, added at 20 ppb): 0.3

Val-Pro [VP]
sourness-masking effect, in words (Example 2, added at 20 ppb): remarkable sourness-masking effect | Evaluation Result (sourness-masking effect) (Example 2, added at 20 ppb): 1.3 | Evaluation Result (sourness-masking effect) (Example 3, added at 0.01 ppm): 1.4 | Evaluation Result (sourness-masking effect) [1]: 0.2 | Evaluation Result (sourness-masking effect) [2]: 1.5 | Evaluation Result (sourness-masking effect) [3]: 1.5

Val-Pro-Pro [VPP, reference compound]
Evaluation Result (sourness-masking effect) (Example 2, added at 20 ppb): 0.2
